Our source for the EC50 values is patent publication US8822471B2, “Compounds, pharmaceutical compositions and uses thereof” (Boehringer Ingelheim International GmbH, priority 2011, dated 2014).

As usually defined, the EC50 is the concentration needed to bring the measured effect to its halfway point. Low values mean an effect from little substance, high ones a need for much substance.

The structures appear in SMILES notation.

The experiment deals with T1, mutant form of the human GPR119 receptor (Homo sapiens, UniProt Q8TDV5, S329A/T327A).
T1 construct: T327 & S329 changed to alanines; expressed in transfected cells
T1 sequence (Q8TDV5 2-335 T327A/S329A): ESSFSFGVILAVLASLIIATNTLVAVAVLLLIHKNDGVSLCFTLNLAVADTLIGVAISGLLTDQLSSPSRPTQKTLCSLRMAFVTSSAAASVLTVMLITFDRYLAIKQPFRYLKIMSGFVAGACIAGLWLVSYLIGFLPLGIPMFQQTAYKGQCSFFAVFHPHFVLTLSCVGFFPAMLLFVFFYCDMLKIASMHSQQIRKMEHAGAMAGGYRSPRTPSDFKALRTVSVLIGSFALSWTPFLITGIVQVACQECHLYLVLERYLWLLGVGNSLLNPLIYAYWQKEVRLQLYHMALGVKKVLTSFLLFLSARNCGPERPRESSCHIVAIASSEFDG
The experiment is described as follows: LANCE cAMP-384 assay in HEK293 cells stably expressing a mutant form of the human GPR119 receptor. The experiment is classed as cell-based. Particulars: HEK293 cells stably expressing mutant human GPR119, LANCE cAMP-384 Kit, 20 min at 37° C. The protocol:
Quantitative detection of cAMP accumulation from cells expressing human GPR119 receptor is achieved using Perkin Elmer's LANCE cAMP-384 Kit (Cat#AD0264) according to the manufacturer's protocol. Briefly, HEK293 cells stably expressing a mutant form of the human GPR119 receptor as assay tool (Methionine 1 replaced with the amino acid sequence […], and T327 & S329 changed to alanines; SEQ ID No. 1) are grown to 50-70% confluency in cell culture media (DMEM, 10% heat inactivated Fetal Bovine Serum, 50 I.U./mL penicillin, 50 μg/mL streptomycin, 10 mM HEPES, 20 μg/mL G418 Sulfate). On the day of the assay, GPR119 stable HEK293 cells are lifted from the tissue culture plate and 1000 cells/well are incubated along with various concentrations of test compounds for 20 min at 37° C. Detection Buffer (50 mM HEPES, 10 mM calcium chloride, 0.35% Triton X-100, 1 mg/mL BSA) containing cAMP-specific antibody is then added to all wells and allowed to equilibrate in the dark for 10 minutes at room temperature. Upon equilibration, Detection Buffer containing europium-labeled cAMP tracer complex is added to all wells and allowed to react for 1 hour at room temperature. After 1 hour, bound europium-labeled cAMP tracer is measured using a Perkin Elmer Envision plate reader. The quantity of cAMP generated in each well is derived from a standard curve. EC50 is determined using nonlinear regression analysis of the cAMP values over a range of agonist concentration (12 points spanning the range from 30 μM to 100 pM).
A general note: In TR-FRET formats the signal depends on donor and acceptor labels being close together.

The compound `O=C(c1ccc(-n2cncn2)cc1)N(C1CC1)C1CCN(c2ncc(Cl)cn2)CC1` [Example 108, N-[1-(5-Chloro-pyrimidin-2-yl)-piperidin-4-yl]-N-cyclopropyl-4-[1,2,4]triazol-1-yl-benzamide] registered a half-maximal effective concentration (EC50) of 552 nM.

Compound `Cc1ncnn1-c1ccc(C(=O)N(C2CC2)C2CCN(c3ncc(Cl)cn3)CC2)cc1` [Example 109, N-[1-(5-Chloro-pyrimidin-2-yl)-piperidin-4-yl]-N-cyclopropyl-4-(5-methyl-[1,2,4]triazol-1-yl)-benzamide] came in with an EC50 of 1740 nM. The value for `O=C(c1ccc(-n2cnnn2)cc1)N(C1CC1)C1CCN(c2ncc(Cl)cn2)CC1` [Example 110, N-[1-(5-Chloro-pyrimidin-2-yl)-piperidin-4-yl]-N-cyclopropyl-4-tetrazol-1-yl-benzamide] was 360 nM; that for `Cc1nnnn1-c1ccc(C(=O)N(C2CC2)C2CCN(c3ncc(Cl)cn3)CC2)cc1` [Example 111, N-[1-(5-Chloro-pyrimidin-2-yl)-piperidin-4-yl]-N-cyclopropyl-4-(5-methyl-tetrazol-1-yl)-benzamide] was 407 nM. As for `Cc1nccn1-c1ccc(C(=O)N(C2CC2)C2CCN(c3ncc(Cl)cn3)CC2)cc1F` [Example 112, N-[1-(5-Chloro-pyrimidin-2-yl)-piperidin-4-yl]-N-cyclopropyl-3-fluoro-4-(2-methyl-imidazol-1-yl)-benzamide], the response was half-maximal at 1500 nM (EC50).

Take `O=C(c1ccc(-n2cncn2)c(F)c1)N(C1CC1)C1CCN(c2ncc(Cl)cn2)CC1` [Example 113, N-[1-(5-Chloro-pyrimidin-2-yl)-piperidin-4-yl]-N-cyclopropyl-3-fluoro-4-[1,2,4]triazol-1-yl-benzamide]: the EC50 is 47 nM. Compared with the last compound, the EC50 is about 32-fold lower. The value for `O=C(c1ccc(-n2cnnn2)c(F)c1)N(C1CC1)C1CCN(c2ncc(Cl)cn2)CC1` [Example 115, N-[1-(5-Chloro-pyrimidin-2-yl)-piperidin-4-yl]-N-cyclopropyl-3-fluoro-4-tetrazol-1-yl-benzamide] was 54 nM; that for `Cc1nnnn1-c1ccc(C(=O)N(C2CC2)C2CCN(c3ncc(Cl)cn3)CC2)cc1F` [Example 116, N-[1-(5-Chloro-pyrimidin-2-yl)-piperidin-4-yl]-N-cyclopropyl-3-fluoro-4-(5-methyl-tetrazol-1-yl)-benzamide] was 294 nM; that for `O=C(c1ccc(-n2cnnn2)cc1)N(C1CC1)C1CCN(c2ncc(C(F)(F)F)cc2F)CC1` [Example 117, N-Cyclopropyl-N-(3′-fluoro-5′-trifluoromethyl-3,4,5,6-tetrahydro-2H-[1,2′]bipyridinyl-4-yl)-4-tetrazol-1-yl-benzamide] was 53 nM. The value for `Cc1nnnn1-c1ccc(C(=O)N(C2CC2)C2CCN(c3ncc(C(F)(F)F)cc3F)CC2)cc1` [Example 118, N-Cyclopropyl-N-(3′-fluoro-5′-trifluoromethyl-3,4,5,6-tetrahydro-2H-[1,2′]bipyridinyl-4-yl)-4-(5-methyl-tetrazol-1-yl)-benzamide] was 101 nM.

`Cc1nnnn1-c1ccc(C(=O)N(C2CC2)C2CCN(c3ncc(C(F)(F)F)cc3F)CC2)cc1F` [Example 119, N-Cyclopropyl-3-fluoro-N-(3′-fluoro-5′-trifluoromethyl-3,4,5,6-tetrahydro-2H-[1,2]bipyridinyl-4-yl)-4-(5-methyl-tetrazol-1-yl)-benzamide]: the EC50 came out at 117 nM.
